Where “and” joins values, the source holds several entries; their conditions need not be identical. Equal values may be shown once.
Experiments:
[1] = analgesic activity, acetic acid-induced writhing; format: in vivo, mouse (albino male); details: mouse, p.o., dose reducing writhing frequency by 50%; 30, 90, 180 minutes after administration
Description: Representative compounds were also evaluated for analgesic activity. The evaluation was conducted by using acetic acid-induced writhing in mice as the pain model. Clinically effective analgesis are effective when tested in this model: see Koster et al., "Acetic Acid for Analgesic Screening," 18 Fed. Proc. 412 (1959).
In a method similar to that reported by Koster et al., standard strain albino male mice weighing 20-22 grams were fasted overnight. The respective compound or vehicle (as control) was administered by gastric lavage (p.o.). Each compound was administered in an aqueous suspension of 1% methylcellulose in water. […] At 30, 90, and 180 minutes after administration, writhing was induced by the intraperitoneal administration of 55 mg./kg. of acetic acid (0.55%). Each treatment group consisted of 5 mice and separate groups were examined at each observation time. The total number of writhes for the treatment group were counted in a 10-minute observation period starting 5 minutes after the acetic acid administration. The treatment totals were compared to controls and a percent inhibition calculated as follows: [formula] […] An ED50, which represented the dose that would reduce the writhing frequency by 50%, was estimated from a dose-reponse curve of three or more points. A dose range was reported if only two points were availale for the dose response curve and they bracketed the 50% level. If data was available at 100 mg./kg., only, then the estimated ED50 was reported simply as less than 100 (<100).

[2] = carrageenin induced test, compound administered about 20 hours prior; format: in vivo; details: rat, dose 10 (unit not given), about 20 hours prior to test
Description: (§1) Representative compounds were also evaluated for anti-inflammatory activity in the test method described by C. A. Winter at 111 Proc. Soc. Exp. Biol. Med., 544 (1962). In this method, inflammation is created by injecting carrageenin into the hind paw of rats. Test compounds are administered prior to injection to determine percent inhibition of the subsequent inflammation, in comparison with control animals.
Each of 4-biphenylylacetylene and (4-(2-fluorophenyl)phenyl)acetylene was evaluated again in the carrageenin induced test method reported in Examples 60-80. However, in these tests, the compound was administered about 20 hours prior to the test procedures.

[3] = adjuvant-induced arthritis test (paw volume); format: in vivo, rat (male albino); details: rat, oral
[4] = carrageenin-induced hind paw inflammation; format: in vivo; details: Rattus norvegicus
Description: as §1

[5] = ultraviolet-induced erythema blocking test, oral (modified Winder method); format: in vivo, guinea pig (male albino); details: Cavia porcellus, guinea pig, weighted scores 1.0-2.5 h after UV, dose which provides 50% inhibition
Description: The compounds of the present invention were evaluated for anti-inflammatoryactivity by the ultraviolet-induced erythema blocking test. The test procedures were a modification of the Winder method (Winder, C. V.; Wax, J.; Burr, V.; Been, M.; and Posiere, C. E.: A Study of Pharmacological Influences on Ultraviolet Erythema in Guinea Pigs. Arch. Int. Pharmacodyn. 116: 261, 1958). Male albino guinea pigs weighing 240-300 gm. were used. The hair on the back was clipped and chemically depilated 15-18 hours before each experiment. The animals were fasted overnight, and on the day of the experiment, were randomized and placed in clear plastic partitioned holders 10×20 cm. wide and 15 cm. high.
The compounds to be tested were suspended in 1% methyl cellulose in water, utilizing a tissue homogenizer. The suspensions were administered orally in a volume of 2.0 ml./kg. of body weight. Control animals received an equal amount of the vehicle.
The source of ultraviolet light was a Hanovia lamp (Kromayer-Model 10). A notebook reinforcement ring was placed upon the lens of the lamp to provide an area of contrast for grading purposes. The lens was then placed in contact with the skin of the guinea pig's back. Exposure time to UV was for a period of 4 seconds. Beginning one hour after exposure and thereafter at half-hour intervals for another 11/2 hours, the degree of resulting erythema was graded by an arbitrary scoring system based upon the degree of contrast and redness formed. Anti-inflammatory agents delay the development of the erythema and have their greatest effect at the initial grading periods. The scores were, therefore, weighted by factors of 4, 3, 2, and 1 at the 1.0, 1.5, 2.0, and 2.5 hour scoring times, respectively. The erythema was graded as follows:
Total scores from each treatment group of four guinea pigs were compared to the scores of the control group. The percent inhibition was calculated as follows: [formula] In the case of compounds showing inhibition, retesting was carried out at a plurality of doses to enable calculation of an ED50 for each such compound. "ED50 " designates that dose which provides 50% inhibition. Calculation of the ED50 was either by a standard linear regression method or by estimation from a dose-response curve of three or more points. The compounds so tested and their ED50 s were as follows: […]

[6] = dose not printed (line below dose 25)

SMILES: C#Cc1ccc(-c2ccccc2)cc1 [4-biphenylylacetylene, 4-Biphenylylacetylene]
- Estimated ED50 [1]: 50 mg/kg
- % Inhibition [2]: 44% and 28%
- Percent Inhibition of Volume Increase, Day 7 ([3]; dose 0.3 (unit not given)): 15%
- Percent Inhibition of Volume Increase, Day 14 ([3]; dose 0.3 (unit not given)): 0%
- Percent Inhibition of Volume Increase, Day 7 ([3]; dose 1 (unit not given)): 0%
- Percent Inhibition of Volume Increase, Day 14 ([3]; dose 1 (unit not given)): 0%
- Percent Inhibition of Volume Increase, Day 7 ([3]; dose 3 (unit not given)): 14%
- Percent Inhibition of Volume Increase, Day 14 ([3]; dose 3 (unit not given)): 7%
- Percent Inhibition of Volume Increase, Day 7 ([3]; dose 25 (unit not given)): 29%
- Percent Inhibition of Volume Increase, Day 14 ([3]; dose 25 (unit not given)): 37%
- Percent Inhibition of Volume Increase, Day 7 [3, 6]: 37%
- Percent Inhibition of Volume Increase, Day 14 [3, 6]: 23%
- inhibition in vivo at 0.5 mg/kg ([4]; 0.5 mg./kg.): 0%
- inhibition in vivo at 3 mg/kg [4]: 36%
- inhibition in vivo at 5 mg/kg ([4]; 5 mg./kg.): 37%
- inhibition in vivo at 10 mg/kg [4]: 42%
- inhibition in vivo at 20 mg/kg ([4]; 20 mg./kg.): 45%
- inhibition in vivo at 50 mg/kg ([4]; 50 mg./kg.): 41%
- ED50 [5]: 0.9 mg/kg

SMILES: C#Cc1ccc(-c2ccccc2)c(Cl)c1 [(3-chloro-4-phenylphenyl)acetylene, (3-Chloro-4-phenylphenyl)acetylene]
- Estimated ED50 [1]: 30 mg/kg
- Percent Inhibition of Volume Increase, Day 7 ([3]; dose 0.1 (unit not given)): 21%
- Percent Inhibition of Volume Increase, Day 14 ([3]; dose 0.1 (unit not given)): 36%
- Percent Inhibition of Volume Increase, Day 7 ([3]; dose 0.3 (unit not given)): 56%
- Percent Inhibition of Volume Increase, Day 14 ([3]; dose 0.3 (unit not given)): 50%
- Percent Inhibition of Volume Increase, Day 7 ([3]; dose 1 (unit not given)): 34%
- Percent Inhibition of Volume Increase, Day 14 ([3]; dose 1 (unit not given)): 41%
- Percent Inhibition of Volume Increase, Day 7 ([3]; dose 3 (unit not given)): 30%
- Percent Inhibition of Volume Increase, Day 14 ([3]; dose 3 (unit not given)): 45%
- inhibition in vivo at 0.3 mg/kg ([4]; 0.3 mg./kg.): 23%
- inhibition in vivo at 3 mg/kg [4]: 41%
- inhibition in vivo at 10 mg/kg [4]: 62%
- ED50 [5]: 0.033 mg/kg
